Test results as given in ChEMBL document CHEMBL3272133, “1-[4-(4-Chlorophenyl)-2-(2,6-dichlorophenylthio)-n-butyl]-1H-imidazole nitrate, a new potent antifungal agent” (J Med Chem, 1978).
The source made the active and inactive calls. The calls are words filed in the database; no cut-off is given here.

What was measured:
Candida albicans [1] = assay: Antifungal activity against Candida albicans infected in mouse assessed as noninfected animals at 100000 U/g administered vaginally bid for 4 days measured 6 hrs post last dose relative to placebo; assay type: functional, organism-based
Candida albicans [2] = assay: Antifungal activity against Candida albicans infected in mouse assessed as noninfected animals at 100000 U/g administered vaginally bid for 4 days measured on day 7 relative to placebo; assay type: functional, organism-based
Candida albicans [3] = assay: Antifungal activity against Candida albicans infected in mouse assessed as noninfected animals at 0.25% formulation in neat PEG 400 solution administered vaginally bid for 4 days measured on day 7 relative to placebo; assay type: functional
Salmonella typhimurium [4] = assay: Toxicity in Salmonella typhimurium TA-100 at 500 ug/plate; assay type: organism-based; conditions: salmonella enterica subsp. enterica serovar typhimurium
Candida albicans [5] = assay: Antifungal activity against Candida albicans infected in mouse assessed as noninfected animals at 2% formulation in neat PEG 400 solution administered vaginally bid for 4 days measured on day 7 relative to placebo; assay type: functional
Candida albicans [6] = assay: Antifungal activity against Candida albicans ATCC 14053 assessed as growth inhibition by broth dilution method; assay type: functional
Saccharomyces cerevisiae [7] = assay: Mutagenic activity in Saccharomyces cerevisiae D4 at 0.1 ug/plate by Ames assay; assay type: organism-based
Salmonella typhimurium [8] = assay: Toxicity in Salmonella typhimurium TA-98 at 500 ug/plate; assay type: organism-based; conditions: salmonella enterica subsp. enterica serovar typhimurium
Candida albicans [9] = assay: Antifungal activity against mixed infection of Candida albicans infected in mouse assessed as noninfected animals at 0.5% formulation administered vaginally bid for 4 days measured on day 7 relative to placebo; assay type: functional
Candida albicans [10] = assay: Antifungal activity against Candida albicans infected in mouse assessed as noninfected animals at 0.25% formulation in neat PEG 400 solution administered vaginally bid for 4 days measured 6 hrs post last dose relative to placebo; assay type: functional
Staphylococcus aureus [11] = assay: Antibacterial activity against Staphylococcus aureus No. 14154 assessed as growth inhibition by broth microdilution method; assay type: functional
[12] = system: Trichophyton mentagrophytes; assay: Antifungal activity against Trichophyton mentagrophytes infected in guinea pig assessed as noninfected animals at 0.5% formulation in steryl alcohol, cetyl alcohol, Span 60, Tween 60, propylene glycol, mineral oil, and water administered qd for 5 days measured on day 14; assay type: functional
[13] = system: Trichophyton mentagrophytes; assay: Antifungal activity against Trichophyton mentagrophytes infected in guinea pig assessed as noninfected animals at 0.5% formulation in steryl alcohol, cetyl alcohol, Span 60, Tween 60, propylene glycol, mineral oil, and water administered qd for 5 days measured on day 4; assay type: functional
Salmonella typhimurium [14] = assay: Mutagenic activity in Salmonella typhimurium TA-1538 at 0.1 to 100 ug/plate by Ames assay in presence of rat liver microsomal enzyme preparation; assay type: toxicity, organism-based; conditions: salmonella enterica subsp. enterica serovar typhimurium, microsomes
[15] = system: Trichophyton mentagrophytes; assay: Antifungal activity against Trichophyton mentagrophytes infected in guinea pig assessed as noninfected animals at 0.5% formulation in steryl alcohol, cetyl alcohol, Span 60, Tween 60, propylene glycol, mineral oil, and water administered qd for 5 days measured on day 7; assay type: functional
Candida albicans [16] = assay: Antifungal activity against mixed infection of Candida albicans infected in mouse assessed as noninfected animals at 0.2% formulation administered vaginally bid for 4 days measured 6 hrs post last dose relative to placebo; assay type: functional
Candida albicans [17] = assay: Antifungal activity against mixed infection of Candida albicans infected in mouse assessed as noninfected animals at 1% formulation in modified PEG 400 solution administered vaginally bid for 4 days measured on day 7 relative to placebo; assay type: functional
Candida albicans [18] = assay: Antifungal activity against Candida albicans ATCC 10231 assessed as growth inhibition by broth dilution method; assay type: functional
Salmonella typhimurium [19] = assay: Toxicity in Salmonella typhimurium TA-1538 at 500 ug/plate; assay type: organism-based; conditions: salmonella enterica subsp. enterica serovar typhimurium
Saccharomyces cerevisiae [20] = assay: Toxicity in Saccharomyces cerevisiae D4 at 500 ug/plate; assay type: organism-based; conditions: in vivo
Salmonella typhimurium [21] = assay: Mutagenic activity in Salmonella typhimurium TA-1537 at 0.1 to 100 ug/plate by Ames assay; assay type: toxicity, organism-based; conditions: salmonella enterica subsp. enterica serovar typhimurium
Candida albicans [22] = assay: Antifungal activity against mixed infection of Candida albicans infected in mouse assessed as noninfected animals at 1% formulation administered vaginally bid for 4 days measured 6 hrs post last dose relative to placebo; assay type: functional
Enterococcus faecalis = assay: Antibacterial activity against Streptococcus faecalis No. 8043-2 assessed as growth inhibition by broth microdilution method; assay type: functional
Candida albicans [23] = assay: Antifungal activity against mixed infection of Candida albicans infected in mouse assessed as noninfected animals at 1% formulation administered vaginally bid for 4 days measured on day 7 relative to placebo; assay type: functional
Salmonella typhimurium [24] = assay: Mutagenic activity in Salmonella typhimurium TA-98 at 0.1 to 100 ug/plate by Ames assay in presence of rat liver microsomal enzyme preparation; assay type: toxicity, organism-based; conditions: salmonella enterica subsp. enterica serovar typhimurium, microsomes
Saccharomyces cerevisiae [25] = assay: Mutagenic activity in Saccharomyces cerevisiae D4 at 0.1 ug/plate by Ames assay in presence of rat liver microsomal enzyme preparation; assay type: toxicity, organism-based; conditions: microsomes
Candida albicans [26] = assay: Antifungal activity against mixed infection of Candida albicans infected in mouse assessed as noninfected animals at 0.1% formulation administered vaginally bid for 4 days measured 6 hrs post last dose relative to placebo; assay type: functional
Salmonella typhimurium [27] = assay: Toxicity in Salmonella typhimurium TA-1535 at 500 ug/plate; assay type: organism-based; conditions: salmonella enterica subsp. enterica serovar typhimurium
Salmonella typhimurium [28] = assay: Toxicity in Salmonella typhimurium TA-1537 at 500 ug/plate; assay type: organism-based; conditions: salmonella enterica subsp. enterica serovar typhimurium
[29] = Acute toxicity in ip dosed mouse; assay type: organism-based; conditions: in vivo
Salmonella typhimurium [30] = assay: Mutagenic activity in Salmonella typhimurium TA-100 at 0.1 to 100 ug/plate by Ames assay in presence of rat liver microsomal enzyme preparation; assay type: toxicity, organism-based; conditions: salmonella enterica subsp. enterica serovar typhimurium, microsomes
Staphylococcus aureus [31] = assay: Antibacterial activity against Staphylococcus aureus No. 6538 P assessed as growth inhibition by broth microdilution method; assay type: functional
Epidermophyton floccosum = assay: Antifungal activity against Epidermophyton floccosum assessed as growth inhibition by agar dilution method; assay type: functional
Microsporum canis = assay: Antifungal activity against Microsporum canis assessed as growth inhibition by agar dilution method; assay type: functional
[32] = Acute toxicity in ip dosed rat; assay type: organism-based; conditions: in vivo
Candida albicans [33] = assay: Antifungal activity against Candida albicans infected in mouse assessed as noninfected animals at 1% formulation in neat PEG 400 solution administered vaginally bid for 4 days measured 6 hrs post last dose relative to placebo; assay type: functional
[34] = Antifungal activity against Trichophyton concentricum assessed as growth inhibition by agar dilution method; assay type: functional
Candida albicans [35] = assay: Antifungal activity against mixed infection of Candida albicans infected in mouse assessed as noninfected animals at 0.2% formulation administered vaginally bid for 4 days measured on day 7 relative to placebo; assay type: functional
Candida albicans [36] = assay: Antifungal activity against Candida albicans infected in mouse assessed as noninfected animals at 0.25 to 4% formulation in neat PEG 400 solution administered vaginally bid for 4 days measured on day 21; assay type: functional, organism-based
Salmonella typhimurium [37] = assay: Mutagenic activity in Salmonella typhimurium TA-1538 at 0.1 to 100 ug/plate by Ames assay; assay type: toxicity, organism-based; conditions: salmonella enterica subsp. enterica serovar typhimurium
Cryptococcus neoformans = assay: Antifungal activity against Cryptococcus neoformans assessed as growth inhibition by broth dilution method; assay type: functional
Salmonella typhimurium [38] = assay: Mutagenic activity in Salmonella typhimurium TA-1535 at 0.1 to 100 ug/plate by Ames assay; assay type: toxicity, organism-based; conditions: salmonella enterica subsp. enterica serovar typhimurium
Candida albicans [39] = assay: Antifungal activity against Candida albicans infected in mouse assessed as noninfected animals at 2% formulation in neat PEG 400 solution administered vaginally bid for 4 days measured 6 hrs post last dose relative to placebo; assay type: functional
Candida albicans [40] = assay: Antifungal activity against Candida albicans infected in mouse assessed as noninfected animals at 0.5% formulation in neat PEG 400 solution administered vaginally bid for 4 days measured on day 7 relative to placebo; assay type: functional
Candida albicans [41] = assay: Antifungal activity against mixed infection of Candida albicans infected in mouse assessed as noninfected animals at 0.1% formulation administered vaginally bid for 4 days measured on day 7 relative to placebo; assay type: functional
[42] = system: Trichophyton mentagrophytes; assay: Antifungal activity against Trichophyton mentagrophytes assessed as growth inhibition by agar dilution method; assay type: functional
Streptococcus pyogenes = assay: Antibacterial activity against Streptococcus pyogenes No. 8668 assessed as growth inhibition by broth microdilution method; assay type: functional
Salmonella typhimurium [43] = assay: Mutagenic activity in Salmonella typhimurium TA-1535 at 0.1 to 100 ug/plate by Ames assay in presence of rat liver microsomal enzyme preparation; assay type: toxicity, organism-based; conditions: salmonella enterica subsp. enterica serovar typhimurium, microsomes
Candida albicans [44] = assay: Antifungal activity against Candida albicans infected in mouse assessed as noninfected animals at 1% formulation in neat PEG 400 solution administered vaginally bid for 4 days measured on day 7 relative to placebo; assay type: functional
Trichophyton tonsurans = assay: Antifungal activity against Trichophyton tonsurans assessed as growth inhibition by agar dilution method; assay type: functional
[45] = Acute toxicity in po dosed mouse; assay type: organism-based; conditions: in vivo
Salmonella typhimurium [46] = assay: Mutagenic activity in Salmonella typhimurium TA-100 at 0.1 to 100 ug/plate by Ames assay; assay type: toxicity, organism-based; conditions: salmonella enterica subsp. enterica serovar typhimurium
Nannizzia gypsea = assay: Antifungal activity against Microsporum gypseum assessed as growth inhibition by agar dilution method; assay type: functional
Salmonella typhimurium [47] = assay: Mutagenic activity in Salmonella typhimurium TA-98 at 0.1 to 100 ug/plate by Ames assay; assay type: toxicity, organism-based; conditions: salmonella enterica subsp. enterica serovar typhimurium
Candida albicans [48] = assay: Antifungal activity against Candida albicans infected in mouse assessed as noninfected animals at 0.5% formulation in neat PEG 400 solution administered vaginally bid for 4 days measured 6 hrs post last dose relative to placebo; assay type: functional
Trichophyton rubrum = assay: Antifungal activity against Trichophyton rubrum assessed as growth inhibition by agar dilution method; assay type: functional
Candida albicans [49] = assay: Antifungal activity against mixed infection of Candida albicans infected in mouse assessed as noninfected animals at 0.5% formulation administered vaginally bid for 4 days measured 6 hrs post last dose relative to placebo; assay type: functional
Salmonella typhimurium [50] = assay: Mutagenic activity in Salmonella typhimurium TA-1537 at 0.1 to 100 ug/plate by Ames assay in presence of rat liver microsomal enzyme preparation; assay type: toxicity, organism-based; conditions: salmonella enterica subsp. enterica serovar typhimurium, microsomes
[51] = Acute toxicity in po dosed female rat; assay type: organism-based; conditions: in vivo
[52] = Acute toxicity in po dosed male rat; assay type: organism-based; conditions: in vivo

NYSTATIN
Activity (Candida albicans [1]): 10% | Activity (Candida albicans [2]): 0%

Clc1ccc(CCC(Cn2ccnc2)Sc2c(Cl)cccc2Cl)cc1.O=[N+]([O-])O (stereo not given) [BUTOCONAZOLE NITRATE]
Activity (Candida albicans [3]): 75% | Activity (Salmonella typhimurium [4]): Toxic | Activity (Candida albicans [5]): 85% | GI (Candida albicans [6]): 10 µg/mL | Activity (Saccharomyces cerevisiae [7]): Non-toxic | Activity (Salmonella typhimurium [8]): Toxic | Activity (Candida albicans [9]): 60% | Activity (Candida albicans [10]): 75% | GI (Staphylococcus aureus [11]): 12.5 µg/mL | Activity [12]: 40% | Activity [13]: 60% | Activity (Salmonella typhimurium [14]): Non-toxic | Activity [15]: 90% | Activity (Candida albicans [16]): 60% | Activity (Candida albicans [17]): 55% | GI (Candida albicans [18]): 30 µg/mL | Activity (Salmonella typhimurium [19]): Toxic | Activity (Saccharomyces cerevisiae [20]): Toxic | Activity (Salmonella typhimurium [21]): Non-toxic | Activity (Candida albicans [22]): 84% | GI (Enterococcus faecalis): 3.12 µg/mL | Activity (Candida albicans [23]): 83% | Activity (Salmonella typhimurium [24]): Non-toxic | Activity (Saccharomyces cerevisiae [25]): Non-toxic | Activity (Candida albicans [26]): 35% | Activity (Salmonella typhimurium [27]): Toxic | Activity (Salmonella typhimurium [28]): Toxic | LD50 [29]: > 1600 mg/kg | Activity (Salmonella typhimurium [30]): Non-toxic | GI (Staphylococcus aureus [31]): 6.25 µg/mL | GI (Epidermophyton floccosum): 5 µg/mL | GI (Microsporum canis): 0.1 µg/mL | LD50 [32]: 940 mg/kg | Activity (Candida albicans [33]): 90% | GI [34]: 0.05 µg/mL | Activity (Candida albicans [35]): 63% | Activity (Candida albicans [36]): Active | Activity (Salmonella typhimurium [37]): Non-toxic | GI (Cryptococcus neoformans): <=1 ug ml-1 | Activity (Salmonella typhimurium [38]): Non-toxic | Activity (Candida albicans [39]): 85% | Activity (Candida albicans [40]): 75% | Activity (Candida albicans [41]): 40% | GI [42]: 1 µg/mL | GI (Streptococcus pyogenes): 0.0016 µg/mL | Activity (Salmonella typhimurium [43]): Non-toxic | Activity (Candida albicans [44]): 95% | GI (Trichophyton tonsurans): 5 µg/mL | LD50 [45]: > 3200 mg/kg | Activity (Salmonella typhimurium [46]): Non-toxic | GI (Nannizzia gypsea): 0.05 µg/mL | Activity (Salmonella typhimurium [47]): Non-toxic | Activity (Candida albicans [48]): 80% | GI (Trichophyton rubrum): 0.05 µg/mL | Activity (Candida albicans [49]): 65% | Activity (Salmonella typhimurium [50]): Non-toxic | LD50 [51]: 1720 mg/kg | LD50 [52]: > 3200 mg/kg
